Values quoted from earlier work in US8183280B2, “FAP inhibitors” (Vantia Limited, priority 2005, dated 2012).

Tested on: syngeneic tumours
Details: mice, oral administration; Cancer Res., 2004, 64: 5471

In the case of `CC(C)[C@H](N)C(=O)N1CCC[C@H]1B(O)O` [ValboroPro], the anti-tumour activity is listed as “potent anti-tumour activity in mice”.
